Experimental data taken from publication PMC3070799 (Neuropharmacology, 2011).
Values joined by “and” are separate entries in the source; they are usually repeats but may differ in a detail not shown here. Equal values may be shown once.

What was measured:
human 5-HT3AB receptors = target: T1, human 5-HT3AB receptors (Homo sapiens, UniProt O95264+P46098); experiment: Two-electrode voltage clamp of 5-HT-induced currents in Xenopus oocytes; assay type: cell-based; conditions: for IC50 at heteromers (5-HT3AB) relative to 5-HT3A: 5-HT3AB versus 5-HT3A; for Hill slope: concentration-inhibition curve, 28 μM 5-HT; for IC50: oocytes
T1 construct: expressed in transfected cells; host or cells: Xenopus laevis oocytes (cRNA from pGEMHE)
T1 sequence (P46098 24-478): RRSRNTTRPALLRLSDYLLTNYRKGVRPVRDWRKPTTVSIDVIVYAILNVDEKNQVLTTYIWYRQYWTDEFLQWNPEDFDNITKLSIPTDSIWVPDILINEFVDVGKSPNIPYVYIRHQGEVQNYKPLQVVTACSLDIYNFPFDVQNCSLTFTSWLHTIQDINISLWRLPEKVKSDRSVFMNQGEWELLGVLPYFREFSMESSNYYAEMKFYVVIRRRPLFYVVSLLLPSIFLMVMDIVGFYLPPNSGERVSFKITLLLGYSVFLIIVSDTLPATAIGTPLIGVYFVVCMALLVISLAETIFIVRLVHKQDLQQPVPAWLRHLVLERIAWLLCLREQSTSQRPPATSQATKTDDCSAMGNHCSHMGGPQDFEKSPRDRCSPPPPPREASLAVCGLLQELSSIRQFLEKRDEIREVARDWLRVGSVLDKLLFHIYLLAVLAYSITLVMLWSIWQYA
T1 sequence (O95264 22-441): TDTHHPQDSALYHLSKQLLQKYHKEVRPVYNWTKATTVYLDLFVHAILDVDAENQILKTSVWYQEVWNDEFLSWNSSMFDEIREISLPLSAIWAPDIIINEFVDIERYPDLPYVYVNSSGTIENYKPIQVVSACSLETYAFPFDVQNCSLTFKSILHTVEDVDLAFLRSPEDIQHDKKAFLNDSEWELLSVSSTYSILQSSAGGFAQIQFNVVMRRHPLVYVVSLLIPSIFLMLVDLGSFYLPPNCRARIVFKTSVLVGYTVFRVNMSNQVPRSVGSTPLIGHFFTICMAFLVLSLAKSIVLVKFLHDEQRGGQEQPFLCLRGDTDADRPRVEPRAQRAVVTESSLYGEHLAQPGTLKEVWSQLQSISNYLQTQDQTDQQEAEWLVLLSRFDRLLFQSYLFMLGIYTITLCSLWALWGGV
Protocol: (§1) Stage V and VI oocytes were injected with 50 nl of ∼300 ng μl^−1 cRNA, and currents were recorded 1–4 days post-injection. A ratio of 1:3 (A:B) was used for the expression of heteromeric 5-HT3 receptors.
(§2) Xenopus laevis oocyte positive females were purchased from NASCO (Fort Atkinson, Wisconsin, USA) and maintained according to standard methods.
(§3) Currents were filtered at a frequency of 1 kHz. Micro-electrodes were fabricated from borosilicate glass (GC120TF-10, Harvard Apparatus, Edenbridge, Kent, UK) using a two stage horizontal pull (P-87, Sutter Instrument Company, California, USA) and filled with 3 M KCl. […] Oocytes were perfused with saline at a rate of 15 ml min^−1. Drug application was via a simple gravity fed system calibrated to run at the same rate. Extracellular saline contained (mM), 96 NaCl, 2 KCl, 1 MgCl2 and 5 mM HEPES; adjusted to pH 7.4 with NaOH.
(§4) Analysis and curve fitting was performed using Prism V3.02 (GraphPad Software, San Diego, California, USA, www.graphpad.com). Concentration-response data for each oocyte was normalised to the maximum current for that oocyte. For inhibition curves, antagonists were routinely co-applied in the presence of agonist. For PXN, oocytes were also pre-treated with the compound for 20 s. A 2 min wash was used between drug applications. The mean and S.E.M. for a series of oocytes was plotted against agonist or antagonist concentration and iteratively fitted (GraphPad Prism v3.02) to the following Hill equation:(1) IA=Imin+Imax−Imin/1+10^nH(logA50−logA) where A is the concentration of ligand present; IA is the current in the presence of ligand concentration A; Imin is the current when A = 0; Imax is the current when A = ∞ , A50 is the concentration of A which evokes a current equal to (Imax + Imin)/2; and nH is the Hill coefficient. Results are presented as mean ± S.E.M.. Statistical analysis was performed using ANOVA in conjunction with a Dunnett’s post-hoc test.

human 5-HT3A receptors = target: T2, human 5-HT3A receptors (Homo sapiens, UniProt P46098); experiment: Two-electrode voltage clamp of 5-HT-induced currents in Xenopus oocytes, incl. co-application; assay type: cell-based; conditions: for use-dependence of inhibition: 3 μM 5-HT applied at 1 min intervals in continued presence of antagonist; for ratio of current amplitudes at +40 mV relative to −40 mV (voltage-dependence): compared with absence of antagonist, Fig. 2E; for Hill slope: concentration-inhibition curve, 1.7 μM 5-HT; for potency at 5-HT3A relative to GABA and glycine receptors: less potent than at GABA and glycine receptors, ref Huang et al., 2004, Hawthorne et al., 2006
T2 construct: expressed in transfected cells; host or cells: Xenopus laevis oocytes (cRNA from pGEMHE)
T2 sequence (P46098 24-478): T1 sequence (P46098 24-478)
Protocol: as §1, §2, §3, §4
97) • Scenario 1: Where compounds share a binding site it was assumed that the extent of binding would be determined by a competitive interaction between the compounds such that the proportion of binding sites occupied (Pocc) in the presence of two competing compounds is given by the following expression: (2) Pocc=AKA+BKB/1+AKA+BKB where A and B are the concentrations of two ligands and KA and KB are their affinity constants respectively.
In each individual experiment, for each combination of inhibitors, data values were obtained for IA, IB and IAB. From IA and IB predicted values of IAB1 and IAB2 were also derived. A two-way ANOVA was performed on values of IAB, IAB1 and IAB2 in which the distinction between IAB, IAB1 and IAB2 was treated as a fixed factor and the variation in levels of inhibition between experiments was treated as a random factor. Where the ANOVA indicated a significant difference (P < 0.05) between IAB, IAB1 and IAB2 a post-hoc analysis was carried out using the Waller–Duncan method to identify homogenous subsets with a significance level of 0.05 and a Type I /Type II error ratio if 100.
Our models were based on the following assumptions: 1. that the channel blocking compounds only effect the response that is seen when the channel is open. […] In the case of condition 5 it is possible that the binding of one compound may prevent access of another to its own site. However, in practice this will not influence the analysis since the functional consequence of the binding of both compounds compared to one will be the same, namely complete channel blockade.

[1] = GB 300 μM, use-dependency experiment, Fig. 3A
[2] = IC50, inhibition of 5-HT EC50 response (28 μM 5-HT)
[3] = pIC50, inhibition of 5-HT EC50 response (28 μM 5-HT)

ginkgolide B [GB]
IC50 at heteromers (5-HT3AB) relative to 5-HT3A (human 5-HT3AB receptors): ~6 fold
Hill slope (human 5-HT3AB receptors): 0.52 ± 0.14
use-dependence of inhibition (human 5-HT3A receptors; GB 300 μM): use-dependent
Level of inhibition (1 − (I/Imax)) GB (human 5-HT3A receptors; GB 11 μM applied alone): 0.25 ± 0.01 and 0.26 ± 0.05
percentage inhibition measured at peak (human 5-HT3A receptors; [1]): 31 ± 3.1%
percentage inhibition measured during the first application (human 5-HT3A receptors; [1]): 38 ± 0.8%
first 5-HT response as % of the second 5-HT response (recovery) (human 5-HT3A receptors; after 0.3 mM GB): 91 ± 2%
ratio of current amplitudes at +40 mV relative to −40 mV (voltage-dependence) (human 5-HT3A receptors): unaltered
Hill slope (human 5-HT3A receptors): 1.10 ± 0.13
potency at 5-HT3A relative to GABA and glycine receptors (human 5-HT3A receptors): ~100 fold

C=C(C)[C@@H]1[C@H]2OC(=O)[C@@H]1[C@]1(O)C[C@H]3O[C@]34C(=O)O[C@H]2[C@]14C [PXN, picrotoxinin]
IC50 at heteromers (5-HT3AB) relative to 5-HT3A (human 5-HT3AB receptors): ~6 fold
IC50 (human 5-HT3AB receptors; [2]): 62 µM
Hill slope (human 5-HT3AB receptors): 0.68 ± 0.10
IC50 (human 5-HT3AB receptors; [3]): 63.1 µM
IC50 (human 5-HT3A receptors): 10.7 µM
use-dependence of inhibition (human 5-HT3A receptors; GB 300 μM): remained stable
Level of inhibition (1 − (I/Imax)) PXN (human 5-HT3A receptors; PXN 5 μM applied alone): 0.35 ± 0.03
effect on 5-HT concentration-response curves (human 5-HT3A receptors; PXN between 1–50 × IC50): rightwards shifts and a reduction in the maximal current
ratio of current amplitudes at +40 mV relative to −40 mV (voltage-dependence) (human 5-HT3A receptors): unaltered
Hill slope (human 5-HT3A receptors): 0.68 ± 0.12
inhibition at 5 µM (human 5-HT3A receptors; read-out: Level of inhibition (1 − (I/Imax)) PXN, PXN 5 μM applied alone): 48 ± 4%

CC(C)(C)[C@]1(O)CC2OC(=O)CC23C(=O)OC2OC(=O)[C@H](O)C231 (stereo partly shown) [BB, bilobalide]
IC50 at heteromers (5-HT3AB) relative to 5-HT3A (human 5-HT3AB receptors): ~6 fold
IC50 (human 5-HT3AB receptors; [2]): 3200 µM
Hill slope (human 5-HT3AB receptors): 0.75 ± 0.13
IC50 (human 5-HT3AB receptors; [3]): 3160 µM
IC50 (human 5-HT3A receptors): 470 µM
use-dependence of inhibition (human 5-HT3A receptors; GB 300 μM): remained stable
current on washout (human 5-HT3A receptors; 6 mM): transient rebound current was observed
ratio of current amplitudes at +40 mV relative to −40 mV (voltage-dependence) (human 5-HT3A receptors): unaltered
Hill slope (human 5-HT3A receptors): 1.48 ± 0.16
potency at 5-HT3A relative to GABA and glycine receptors (human 5-HT3A receptors): ~100 fold
